In ChEMBL document CHEMBL4417635, “2-hydroxyarylamide derivative or pharmaceutically acceptable salt thereof, preparation method thereof, and pharmaceutical composition for preventing or treating cancer containing same as active ingredient” (2013):

Each compound was assayed against Transmembrane protease serine 4 (Homo sapiens) (UniProt Q9NRS4) (assay: (§1) Inhibition of TMPRSS4 serine protease domain (Val 205 to Leu 437 residues) (unknown origin) expressed in Escherichia coli BL21 (DE3) at 100 uM using […]-Gln-Ala-Arg-7-amido-4-methylcoumarin hydrochloride substrate and measured for 5 mins at 5 mins intervals by fluorescence based assay relative to control).
Sequence of Transmembrane protease serine 4 (Homo sapiens) (Q9NRS4 whole entry, the tested form may be a part): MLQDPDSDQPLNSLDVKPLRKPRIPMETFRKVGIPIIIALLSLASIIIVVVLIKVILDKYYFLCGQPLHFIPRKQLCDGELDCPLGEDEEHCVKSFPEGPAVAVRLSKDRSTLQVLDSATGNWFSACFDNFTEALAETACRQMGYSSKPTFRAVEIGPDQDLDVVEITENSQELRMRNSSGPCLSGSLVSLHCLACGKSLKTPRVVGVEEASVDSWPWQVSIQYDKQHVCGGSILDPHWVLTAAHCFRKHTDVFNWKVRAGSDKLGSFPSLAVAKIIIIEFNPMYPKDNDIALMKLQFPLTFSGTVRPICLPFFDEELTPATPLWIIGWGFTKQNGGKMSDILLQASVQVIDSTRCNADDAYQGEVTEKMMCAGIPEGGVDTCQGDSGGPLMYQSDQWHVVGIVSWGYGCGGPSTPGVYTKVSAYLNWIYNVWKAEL

Structure (SMILES) | inhibition [%]
O=C(Nc1ccc(C(F)(F)F)cn1)c1cc(Cl)ccc1O | 47
O=C(Nc1ccc(Br)c(C(F)(F)F)c1)c1cc(Cl)ccc1O | 98
O=C(Nc1cc(C(F)(F)F)ccc1F)c1cc(Cl)ccc1O | 100
O=C(Nc1ncccn1)c1cc(Cl)ccc1O | 2
N#Cc1cccc(NC(=O)c2cc(Cl)ccc2O)c1 | 88
Cc1cc(C)cc(NC(=O)c2cc(Cl)ccc2O)c1 | 56
O=C(Nc1cc(Br)cc(C(F)(F)F)c1)c1cc(Cl)ccc1O | 100
O=C(Nc1ccc(Cl)nc1)c1cc(Cl)ccc1O | 39
O=C(Nc1c(F)c(F)nc(F)c1F)c1cc(Cl)ccc1O | 51
Cc1cc(C)nc(NC(=O)c2cc(Cl)ccc2O)n1 | 0
O=C(Nc1cc(C(F)(F)F)ccc1Cl)c1cc(Cl)ccc1O | 100
O=C(Nc1nccs1)c1cc(Cl)ccc1O | 90
O=C(Nc1ccc(Cl)cn1)c1cc(Cl)ccc1O | 55
O=C(Nc1ccnc(Cl)c1)c1cc(Cl)ccc1O | 21
O=C(Nc1ccccn1)c1cc(Cl)ccc1O | 11
N#Cc1ccc(NC(=O)c2cc(Cl)ccc2O)cc1 | 69
Cc1csc(NC(=O)c2cc(Cl)ccc2O)n1 | 67
O=C(Nc1ccc(F)c(C(F)(F)F)c1)c1cc(Cl)ccc1O | 98
O=C(Nc1nc(C(F)(F)F)cs1)c1cc(Cl)ccc1O | 100
O=C(Nc1ncc(C(F)(F)F)cc1Cl)c1cc(Cl)ccc1O | 0
O=C(Nc1ccccc1)c1cc(Cl)ccc1O | 75

Each compound was assayed against Transmembrane protease serine 4 (Homo sapiens) (UniProt Q9NRS4) (assay: as §1, with “30” for “100”).

Structure (SMILES) | inhibition [%]
O=C(Nc1ccc(C(F)(F)F)cn1)c1cc(Cl)ccc1O | 25
Cc1c(C(F)(F)F)cc(NC(=O)c2cc(Cl)ccc2O)cc1C(F)(F)F | 94
O=C(Nc1ccc(C(F)(F)F)c(C(F)(F)F)c1)c1cc(Cl)ccc1O | 59
Cc1ccc(O)c(C(=O)Nc2cc(C(F)(F)F)cc(C(F)(F)F)c2)c1 | 64
NC(=O)c1ccc(O)c(C(=O)Nc2cc(C(F)(F)F)cc(C(F)(F)F)c2)c1 | 21
O=C(Nc1ccc(Br)c(C(F)(F)F)c1)c1cc(Cl)ccc1O | 46 to 93
O=C(Nc1cc(C(F)(F)F)ccc1F)c1cc(Cl)ccc1O | 100
O=C(Nc1ccc(C(F)(F)F)cc1[N+](=O)[O-])c1cc(Cl)ccc1O | 98
O=C(Nc1ncccn1)c1cc(Cl)ccc1O | 0
N#Cc1cccc(NC(=O)c2cc(Cl)ccc2O)c1 | 47
Cc1cc(C)cc(NC(=O)c2cc(Cl)ccc2O)c1 | 44
O=C(Nc1cc(C(F)(F)F)c(Br)c(C(F)(F)F)c1)c1cc(Cl)ccc1O | 85
O=C(Nc1cc(Br)cc(C(F)(F)F)c1)c1cc(Cl)ccc1O | 100
O=C(Nc1cc(C(F)(F)F)cc(C(F)(F)F)c1)c1ccccc1O | 20
O=C(Nc1ccc(Cl)nc1)c1cc(Cl)ccc1O | 6
O=C(Nc1c(F)c(F)nc(F)c1F)c1cc(Cl)ccc1O | 31
Cc1cc(C)nc(NC(=O)c2cc(Cl)ccc2O)n1 | 0
O=C(Nc1cc(C(F)(F)F)ccc1Cl)c1cc(Cl)ccc1O | 99
O=C(Nc1nccs1)c1cc(Cl)ccc1O | 44
O=C(Nc1ccc(Cl)cn1)c1cc(Cl)ccc1O | 14
O=C(Nc1ccnc(Cl)c1)c1cc(Cl)ccc1O | 35
O=C(Nc1ccccn1)c1cc(Cl)ccc1O | 0
N#Cc1ccc(NC(=O)c2cc(Cl)ccc2O)cc1 | 29
Cc1csc(NC(=O)c2cc(Cl)ccc2O)n1 | 0
O=C(Nc1ccc(F)c(C(F)(F)F)c1)c1cc(Cl)ccc1O | 86
O=C(Nc1nc(C(F)(F)F)cs1)c1cc(Cl)ccc1O | 61
O=C(Nc1ncc(C(F)(F)F)cc1Cl)c1cc(Cl)ccc1O | 0
O=C(Nc1ccccc1)c1cc(Cl)ccc1O | 13

The compounds below were run against Transmembrane protease serine 4 (Homo sapiens) (UniProt Q9NRS4) (assay: as §1, with “10” for “100”).

Structure (SMILES) | inhibition [%]
Cc1c(C(F)(F)F)cc(NC(=O)c2cc(Cl)ccc2O)cc1C(F)(F)F | 51
O=C(Nc1ccc(C(F)(F)F)c(C(F)(F)F)c1)c1cc(Cl)ccc1O | 37
Cc1ccc(O)c(C(=O)Nc2cc(C(F)(F)F)cc(C(F)(F)F)c2)c1 | 0
NC(=O)c1ccc(O)c(C(=O)Nc2cc(C(F)(F)F)cc(C(F)(F)F)c2)c1 | 0
O=C(Nc1ccc(Br)c(C(F)(F)F)c1)c1cc(Cl)ccc1O | 30 to 80
O=C(Nc1cc(C(F)(F)F)ccc1F)c1cc(Cl)ccc1O | 67 to 100
O=C(Nc1ccc(C(F)(F)F)cc1[N+](=O)[O-])c1cc(Cl)ccc1O | 53
N#Cc1cccc(NC(=O)c2cc(Cl)ccc2O)c1 | 12
O=C(Nc1cc(C(F)(F)F)c(Br)c(C(F)(F)F)c1)c1cc(Cl)ccc1O | 58
O=C(Nc1cc(Br)cc(C(F)(F)F)c1)c1cc(Cl)ccc1O | 64
O=C(Nc1cc(C(F)(F)F)cc(C(F)(F)F)c1)c1ccccc1O | 0
O=C(Nc1cc(C(F)(F)F)ccc1Cl)c1cc(Cl)ccc1O | 64
O=C(Nc1ccc(F)c(C(F)(F)F)c1)c1cc(Cl)ccc1O | 64

What follows are compounds tested against Transmembrane protease serine 4 (Homo sapiens) (UniProt Q9NRS4) (assay: Inhibition of TMPRSS4 serine protease domain (Val 205 to Leu 437 residues) (unknown origin) expressed in Escherichia coli BL21 (DE3) using […]-Gln-Ala-Arg-7-amido-4-methylcoumarin hydrochloride substrate and measured for 5 mins at 5 mins intervals by fluorescence based assay relative to control).

Structure (SMILES) | inhibition
O=C(Nc1ccc(C(F)(F)F)cn1)c1cc(Cl)ccc1O | Dose-dependent effect
Cc1c(C(F)(F)F)cc(NC(=O)c2cc(Cl)ccc2O)cc1C(F)(F)F | Dose-dependent effect
O=C(Nc1ccc(C(F)(F)F)c(C(F)(F)F)c1)c1cc(Cl)ccc1O | Dose-dependent effect
Cc1ccc(O)c(C(=O)Nc2cc(C(F)(F)F)cc(C(F)(F)F)c2)c1 | Dose-dependent effect
NC(=O)c1ccc(O)c(C(=O)Nc2cc(C(F)(F)F)cc(C(F)(F)F)c2)c1 | Dose-dependent effect
O=C(Nc1ccc(Br)c(C(F)(F)F)c1)c1cc(Cl)ccc1O | Dose-dependent effect
O=C(Nc1cc(C(F)(F)F)ccc1F)c1cc(Cl)ccc1O | Dose-dependent effect
O=C(Nc1ccc(C(F)(F)F)cc1[N+](=O)[O-])c1cc(Cl)ccc1O | Dose-dependent effect
O=C(Nc1ncccn1)c1cc(Cl)ccc1O | Dose-dependent effect
N#Cc1cccc(NC(=O)c2cc(Cl)ccc2O)c1 | Dose-dependent effect
Cc1cc(C)cc(NC(=O)c2cc(Cl)ccc2O)c1 | Dose-dependent effect
O=C(Nc1cc(C(F)(F)F)c(Br)c(C(F)(F)F)c1)c1cc(Cl)ccc1O | Dose-dependent effect
O=C(Nc1cc(Br)cc(C(F)(F)F)c1)c1cc(Cl)ccc1O | Dose-dependent effect
O=C(Nc1cc(C(F)(F)F)cc(C(F)(F)F)c1)c1ccccc1O | Dose-dependent effect
O=C(Nc1ccc(Cl)nc1)c1cc(Cl)ccc1O | Dose-dependent effect
O=C(Nc1c(F)c(F)nc(F)c1F)c1cc(Cl)ccc1O | Dose-dependent effect
Cc1cc(C)nc(NC(=O)c2cc(Cl)ccc2O)n1 | Dose-dependent effect
O=C(Nc1cc(C(F)(F)F)ccc1Cl)c1cc(Cl)ccc1O | Dose-dependent effect
O=C(Nc1nccs1)c1cc(Cl)ccc1O | Dose-dependent effect
O=C(Nc1ccc(Cl)cn1)c1cc(Cl)ccc1O | Dose-dependent effect
O=C(Nc1ccnc(Cl)c1)c1cc(Cl)ccc1O | Dose-dependent effect
O=C(Nc1ccccn1)c1cc(Cl)ccc1O | Dose-dependent effect
N#Cc1ccc(NC(=O)c2cc(Cl)ccc2O)cc1 | Dose-dependent effect
Cc1csc(NC(=O)c2cc(Cl)ccc2O)n1 | Dose-dependent effect
O=C(Nc1ccc(F)c(C(F)(F)F)c1)c1cc(Cl)ccc1O | Dose-dependent effect
O=C(Nc1nc(C(F)(F)F)cs1)c1cc(Cl)ccc1O | Dose-dependent effect
O=C(Nc1ncc(C(F)(F)F)cc1Cl)c1cc(Cl)ccc1O | Dose-dependent effect
O=C(Nc1ccccc1)c1cc(Cl)ccc1O | Dose-dependent effect

The compounds below were run against Transmembrane protease serine 4 (Homo sapiens) (UniProt Q9NRS4) (assay: Inhibition of TMPRSS4 (unknown origin) expressed in human SW480 cells assessed as reduction in cell migration at 0.8 uM incubated for 48 hrs by crystal violet staining based assay relative to control).

Structure (SMILES) | inhibition [%]
O=C(Nc1ccc(C(F)(F)F)cc1[N+](=O)[O-])c1cc(Cl)ccc1O | 76
